Earlier results in US5679660A, “Pharmaceutical composition comprising diclofenac and cyclodextrin” (Farmarc Nederland BV, priority 1993, dated 1997).

Conditions: literature, Backensfeld and Mueller 1990

SMILES: OC[C@H]1O[C@@H]2O[C@H]3[C@H](O)[C@@H](O)[C@@H](O[C@H]4[C@H](O)[C@@H](O)[C@@H](O[C@H]5[C@H](O)[C@@H](O)[C@@H](O[C@H]6[C@H](O)[C@@H](O)[C@@H](O[C@H]7[C@H](O)[C@@H](O)[C@@H](O[C@H]8[C@H](O)[C@@H](O)[C@@H](O[C@H]1[C@H](O)[C@H]2O)O[C@@H]8CO)O[C@@H]7CO)O[C@@H]6CO)O[C@@H]5CO)O[C@@H]4CO)O[C@@H]3CO [Beta-cyclodextrin]
- effect on aqueous solubility of diclofenac: increase the aqueous solubility
